Reference: US11478526B2, “Methods of reducing neuroinflammation or toxicity induced by amyloid beta (abeta) using glucocorticoid induced leucine zipper (GILZ) analog peptides” (INDIANA UNIVERSITY RESEARCH AND TECHNOLOGY CORPORATION, priority 2016, dated 2022)

Columns and labels:
[1] = target: T1, Recombinant human p65 protein (r-p65) (Homo sapiens, UniProt Q04206); assay: Plate binding ELISA of GA/PGA with r-p65 (KD by method of Friguet)
T1 construct: purchased Ori-Gene Technologies Inc., Rockville, Md; TP320780
T1 sequence (Q04206 whole entry): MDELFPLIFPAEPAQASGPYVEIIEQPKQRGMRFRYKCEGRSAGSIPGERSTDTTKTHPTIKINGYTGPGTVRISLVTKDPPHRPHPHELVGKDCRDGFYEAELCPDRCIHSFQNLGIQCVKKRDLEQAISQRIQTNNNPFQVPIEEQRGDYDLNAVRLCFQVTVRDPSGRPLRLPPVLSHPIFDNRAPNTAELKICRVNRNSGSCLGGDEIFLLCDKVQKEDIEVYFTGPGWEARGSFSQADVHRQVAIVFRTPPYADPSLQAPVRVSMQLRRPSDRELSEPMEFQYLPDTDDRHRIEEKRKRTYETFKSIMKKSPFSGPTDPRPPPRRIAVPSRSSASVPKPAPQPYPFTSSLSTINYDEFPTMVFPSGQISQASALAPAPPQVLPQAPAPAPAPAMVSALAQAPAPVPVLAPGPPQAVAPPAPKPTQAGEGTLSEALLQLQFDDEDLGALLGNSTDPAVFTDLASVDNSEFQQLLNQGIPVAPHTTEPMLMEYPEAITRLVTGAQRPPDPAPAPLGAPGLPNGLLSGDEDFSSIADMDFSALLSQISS
Experimental: We used similar method to determine direct binding kinetics of GA hexapeptides with human r-p65. […] Absorbance at 650 nm was measured with a mixing time of 30 s using BIORAD microplate reader. […] The dissociation constant of the interaction between the GA or the control peptide and r-p65 was determined by the method of Friguet et al., as described. A fraction of the bound r-p65 (x) and the ratio of bound r-p65 to the free GA or control peptide (y) was determined by the equations: x=(A0−A)/(A0), where A0 is the absorbance of r-p65anti-p65 complex in the absence of bound GA or control peptide and y=(A0−A)/(a0−i0)×(A0−A)/(A0), where a0 is the total concentration of GA or control peptide and i0 is the total concentration of r-p65.
Kinetics of PGA:-p65 interaction: The binding kinetics of top five PGA with full length human r-p65 was assessed as described. Plate bound GILZ-P or PGA at increasing concentrations was probed with r-p65-DDK (Ori-Gene Technologies Inc., Rockville, Md.) at constant concentration and detected with anti-DDK.

[2] = test system: primary human fetal brain cells (HFB); assay: CTG viability of primary human fetal brain cultures with or without Aβ1-42; format: cell-based; settings: for viability of Aβ1-42 exposed HFB cells: Aβ1-42 10 μM
Experimental: Functional assays in human primary mixed brain cultures (HFB). Primary cultures of mixed HFB were prepared from the brain parenchyma of aborted fetuses (80-100 days gestational age). The tissues were obtained from the Birth Defects Research Laboratory (BDRL) at the University of Washington, Seattle with approval from the Indiana University Institutional Review Board (IRB). The IRB determined that the use of anonymous human biological materials received from this depository is not considered as human subjects research (supplementary document, s1). The NIH funded BDRL tissue distribution program operates separately in full compliance with all relevant state and federal laws and regulations with donors providing written informed consent.
Fetal brain materials (10-20 g) were shipped overnight in chilled Hibernate-E medium (Invitrogen) supplemented with B27 (Invitrogen), GlutaMAX (Invitrogen) and antibiotic-antimycotic solution (Cellgro). HFB were prepared and cultured as described. Briefly, cells were cultured in Neurobasal medium (Invitrogen) without phenol red supplemented with 1×B27, […] GlutaMAX, 1×antibiotic cocktail, 5 ng/mL recombinant fibroblast growth factor 2 (bFGF) (Invitrogen), and 2 μL/mL Normocin (InVivoGen, San Diego, Calif., USA). Cells were counted and seeded onto poly-D-lysine (Sigma-Aldrich) coated 24-well plates (Corning, Lowell, Mass., USA) at 1.5×10^5 cells per well and maintained at 37° C. in a 5% CO2 incubator. Half media changes were performed every 4th day of culture and morphology was monitored via phase contrast microscopy. Culture medium was removed from cells on day 17 (DIV17) and replaced with Neurobasal medium with B27. […] Cells and conditioned media were harvested and stored for further analysis. Relative ATP concentration was measured using the CTG kit (Promega). Data is presented as ΔRLU=RLU of Aβ1-42 exposed cells-RLU unexposed cells. Conditioned media collected were assessed for specific cytokines using the OptEIA kits (BD Biosciences). Nuclear and cytoplasmic fractions were extracted using the CelLytic™ NuCLEAR™ Extraction Kit (Sigma) following manufacturer's protocol. Five microgram of nuclear extracts was incubated in a 96-well plate coated with oligonucleotides containing the NF-κβ consensus nucleotide sequence (5′-[…]-3′) (SEQ ID NO: 30). The activated NF-κβ bound to DNA was detected by anti-p65 antibody followed by a peroxidase coupled secondary antibody and substrate using the TransAM kit protocol (Active Motif). Nuclear extracts of Raji cells was used as the positive control.
(§1) Select PGA protects against Aβ1-42 induced toxicity, prevents p65 activation and cytokine response in human fetal brain (HFB) cells. […] Viability in terms of relative luminescent Units (RLU) was quantified using a Glowmax luminometer (Promega, Wis.). Data are presented as ARLU=RLU of Aβ1-42 exposed cells-RLU of unexposed cells. […] The mean RLU of vehicle treated HFB varied between 7352.75+/−1265.2 and 16157.5+/−4950. Average RLU of cultures exposed to Aβ1-42 varied between 6067.25+/−903.05 and 11574.25+/−4139.3 in different experiments. […] The culture supernatants were assessed for cytokines by ELISA (R&D Systems, Minn.). […] Primary HFB cultured similarly and harvested at the end of 4 hours was assessed for nuclear p65 using TransAM kit for NF-κB p65 (Active Motif, Calif.).

[3] = test system: activated p65 NF-κB subunit; assay: Nuclear p65 DNA binding (TransAM NF-κB ELISA) in HFB; format: cell-based, human; settings: Aβ1-42 exposed, 4 hours
Experimental: Fetal brain materials (10-20 g) were shipped overnight in chilled Hibernate-E medium (Invitrogen) supplemented with B27 (Invitrogen), GlutaMAX (Invitrogen) and antibiotic-antimycotic solution (Cellgro). HFB were prepared and cultured as described. Briefly, cells were cultured in Neurobasal medium (Invitrogen) without phenol red supplemented with 1×B27, […] GlutaMAX, 1×antibiotic cocktail, 5 ng/mL recombinant fibroblast growth factor 2 (bFGF) (Invitrogen), and 2 μL/mL Normocin (InVivoGen, San Diego, Calif., USA). Cells were counted and seeded onto poly-D-lysine (Sigma-Aldrich) coated 24-well plates (Corning, Lowell, Mass., USA) at 1.5×10^5 cells per well and maintained at 37° C. in a 5% CO2 incubator. Half media changes were performed every 4th day of culture and morphology was monitored via phase contrast microscopy. Culture medium was removed from cells on day 17 (DIV17) and replaced with Neurobasal medium with B27. Appropriate wells were then added vehicle, or carrier peptide or individual GA or control peptide (at 50 μM) for 30 min followed by exposure to Aβ1-42 at a final concentration of 10 μM/well and incubated for 4 hours or 48 hours. Cells and conditioned media were harvested and stored for further analysis. Relative ATP concentration was measured using the CTG kit (Promega). Data is presented as ΔRLU=RLU of Aβ1-42 exposed cells-RLU unexposed cells. Conditioned media collected were assessed for specific cytokines using the OptEIA kits (BD Biosciences). Nuclear and cytoplasmic fractions were extracted using the CelLytic™ NuCLEAR™ Extraction Kit (Sigma) following manufacturer's protocol. Five microgram of nuclear extracts was incubated in a 96-well plate coated with oligonucleotides containing the NF-κβ consensus nucleotide sequence (5′-[…]-3′) (SEQ ID NO: 30). The activated NF-κβ bound to DNA was detected by anti-p65 antibody followed by a peroxidase coupled secondary antibody and substrate using the TransAM kit protocol (Active Motif). Nuclear extracts of Raji cells was used as the positive control.
as §1, with “16157.5+/−4950.” for “16157.5+/−4950. Average RLU of cultures exposed to Aβ1-42 varied between 6067.25+/−903.05 and 11574.25+/−4139.3 in different experiments.”

[4] = dissociation constant, KD, method of Friguet et al.
[5] = PGA at IC50 concentration, 24 hours
[6] = 50 μM peptide, vs untreated Aβ1-42 exposed cultures

Substance | Kd ([1]; KD (uM), score 1/0) | Kd [1, 4] | tolerance of HFB cultures (ΔRLU, CTG) ([2]; PGA at IC50 concentration) | viability of Aβ1-42 exposed HFB cells [2, 5] | nuclear p65 ([3]; PGA at IC50 concentration) | affinity for binding r-p65 relative to r-GILZ [1] | viability of Aβ1-42 exposed HFB cells [2, 6] | nuclear p65 ([3]; 50 μM peptide)
Ac-EPAPESPQV-NH2 [PGA-4] | > 3 µM | 3.28 µM | well tolerated | significantly higher | decreased nuclear p65 |  |  | 
Ac-EPAPESPQV-NH2 [GA-2] |  |  |  |  |  | greater affinity for binding r-p65 than the full length r-GILZ | significantly higher | trend towards decreased nuclear p65
Ac-EPAPLAPYG-NH2 [PGA-2] | < 3 µM | 2.29 µM | well tolerated | significantly higher | decreased nuclear p65 |  |  | 
Ac-EPAPLAPYG-NH2 [GA-1] |  |  |  |  |  | greater affinity for binding r-p65 than the full length r-GILZ | significantly higher | trend towards decreased nuclear p65
